The values that follow are results of earlier work, collected in patent US20130018223A1, “METHOD FOR TIMING A COLONOSCOPY” (priority 2011, published 2013).

For `[O]=[Mg]` [Magnesium oxide], the solubility in alcohol entry is listed as “not soluble”.
